Read-outs that look alike come from different tables or passages of the source.
Columns and labels:
[1] = biological target: T1, SF3b complexes (Homo sapiens, UniProt O75533+Q7RTV0); test: Scintillation proximity assay (SPA) with [3H]-labelled pladienolide probe; assay type: binding; conditions: SF3B1 (WT); geometric mean; read-out: SPA-ATS GMean IC50 (nM) SF3B1 (WT)
T1 construct: endogenous in cells; host or cells: Nuclear extracts; A HeLa S3 extract preparation is described for the in vitro splicing assay
How it was run: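 SF3b complexes captured from nuclear extracts on anti-SF3B1 antibody SPA beads; test compounds pre-incubated 30 min before 2.5 nM [3H]-pladienolide probe added, then 30 min incubation. Bound probe read by scintillation; values from non-linear regression of concentration–response curves.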

[2] = test system: Ad2 variant pre-mRNAs spliced in HeLa S3 nuclear extracts; test: In vitro splicing assay (IVS), RT-qPCR of spliced product; assay type: biochemical; conditions: for IC50: geometric mean; for Ratio Ad2.1/2.2: ratio of IVS IC50 Ad2.1 to Ad2.2
How it was run: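 Read-out is one-step TaqMan RT-qPCR of spliced Ad2 mRNA with Ftz as reference, normalized to DMSO and fit by non-linear regression. Reactions held HeLa S3 nuclear extract, 2 ng Ad2-derived pre-mRNA and test compound, with 15 min preincubation. Splicing was started with ATP-containing activation buffer and run 90 min at 30 °C.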

[3] = test system: NCI-H1568 cells (high MCL1); test: Cell proliferation and viability, CellTiter-Glo, 72 hours; assay type: cell-based; conditions: for GI50: geometric mean
How it was run: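 ATP luminescence (CellTiter-Glo) was measured 72 h after treatment with compound at 10 μM–100 pM (11 points, half-log) in 0.1% DMSO. The Panc line was grown in RPMI-1640 plus insulin and 15% FBS, the other in 10% FBS. Data were normalised to time zero and vehicle controls, where −100% is cidal and 0% static.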

[4] = Ad2.1 pre-mRNA substrate, read-out: qPCR-IVS-ATS GMean IC50 (nM) Ad2.1
[5] = Ad2.2 pre-mRNA substrate, read-out: qPCR-IVS-ATS GMean IC50 (nM) Ad2.2
[6] = 72 h, NCIH1568.1, -100% = cidal, 0% = static, 100% = uninhibited growth
[7] = NCI-H1568, read-out: CTGlo-ATS GMean GI50 (nM) 72 h NCIH1568.1, 72 h, NCIH1568.1
[8] = NCI-H1568, read-out: CTGlo-ATS GMean GI50 (nM) 72 h NCIH1568.1, NCIH1568.1 cells, 72 h
[9] = NCIH1568.1 cells, 72 h, −100% cidal, 0% static, 100% maximal growth
[10] = NCI-H1568, 72 h, read-out: CTGlo-ATS GMean GI50 (nM) 72 h NCIH1568.1, 72 h, NCIH1568.1

COCC(=O)N[C@H]1CCN(c2cc(F)cc(/C=C(\C)[C@H]3OC(=O)CC(O)CCC(C)[C@@H](OC(=O)N4CCN(C)CC4)/C=C/[C@@H]3C)c2)C1 (stereo in doubt) [Compound 218, [(2S,3S,4E,6R,7R,10S)-2-[(E)-1-[3-fluoro-5-[(3S)-3-[(2-methoxyacetyl)amino]pyrrolidin-1-yl]phenyl]prop-1-en-2-yl]-10-hydroxy-3,7-dimethyl-12-oxo-1-oxacyclododec-4-en-6-yl] 4-methylpiperazine-1-carboxylate]
IC50 [1]: 2.79 nM | IC50 [2, 4]: 30.5 nM | IC50 [2, 5]: 5.62 nM | Ratio Ad2.1/2.2 [2]: 5.425 | CTGlo-ATS Mean MinResponse % 72 h NCIH1568.1 [3, 6]: −75.420% | GI50 [3, 7]: 6.2 nM

COCC(=O)N1CCC(N(C)c2cc(F)cc(/C=C(\C)[C@H]3OC(=O)C[C@H](O)CC[C@H](C)[C@@H](OC(=O)N4CCN(C)CC4)/C=C/[C@@H]3C)c2)CC1 [Compound 179]
IC50 [1]: 6.15 nM | IC50 [2, 4]: 31.4 nM | IC50 [2, 5]: 14.2 nM | GI50 [3, 8]: 8.7 nM | CTGlo-ATS Mean MinResponse % 72 h NCIH1568.1 [3, 9]: −82.684%

C/C(=C\c1cc(F)cc(N(C)C2CCN(S(=O)(=O)c3ccccc3)CC2)c1)[C@H]1OC(=O)C[C@H](O)CC[C@H](C)[C@@H](OC(=O)N2CCN(C)CC2)/C=C/[C@@H]1C [Compound 185]
IC50 [1]: 186 nM | IC50 [2, 4]: 543 nM | IC50 [2, 5]: 46.6 nM | GI50 [3, 8]: 114 nM | CTGlo-ATS Mean MinResponse % 72 h NCIH1568.1 [3, 9]: −99.538%

COc1ccc(CNC(=O)O[C@H]2/C=C/C(C)C(/C(C)=C/c3cc(F)cc(N4CCN(C(=O)Cn5cccn5)CC4)c3)OC(=O)CC(O)CC[C@@H]2C)cc1 (stereo in doubt) [Compound 226, [(2R,3R,4E,6R,7S,10S)-2-[(E)-1-[3-fluoro-5-[4-(2-pyrazol-1-ylacetyl)piperazin-1-yl]phenyl]prop-1-en-2-yl]-10-hydroxy-3,7-dimethyl-12-oxo-1-oxacyclododec-4-en-6-yl] N-[(4-methoxyphenyl)methyl]carbamate]
IC50 [1]: 1.17 nM | IC50 [2, 4]: 8.74 nM | IC50 [2, 5]: 102 nM | Ratio Ad2.1/2.2 [2]: 0.086 | CTGlo-ATS Mean MinResponse % 72 h NCIH1568.1 [3, 6]: −64.963% | GI50 [3, 7]: 34.7 nM

C/C(=C\c1cc(F)cc(N2CCN(C(=O)Cn3cccn3)CC2)c1)[C@H]1OC(=O)C[C@H](O)CC[C@H](C)[C@@H](OC(=O)N(C)C2CCN(C)CC2)/C=C/[C@@H]1C [Compound 233, [(2S,3S,4E,6R,7S,10R)-2-[(E)-1-[3-fluoro-5-[4-(2-pyrazol-1-ylacetyl)piperazin-1-yl]phenyl]prop-1-en-2-yl]-10-hydroxy-3,7-dimethyl-12-oxo-1-oxacyclododec-4-en-6-yl] N-methyl-N-(1-methylpiperidin-4-yl)carbamate]
IC50 [1]: 2.46 nM | IC50 [2, 4]: 5.87 nM | IC50 [2, 5]: 6.05 nM | Ratio Ad2.1/2.2 [2]: 0.971 | CTGlo-ATS Mean MinResponse % 72 h NCIH1568.1 [3, 6]: −87.288% | GI50 [3, 7]: 1.98 nM

C/C(=C\c1cc(F)cc(N2CCN(C(=O)Cn3cccn3)CC2)c1)[C@H]1OC(=O)C[C@H](O)CC[C@H](C)[C@@H](OC(=O)N2CCOCC2)/C=C/[C@@H]1C [Compound 223, [(2S,3S,4E,6R,7S,10R)-2-[(E)-1-[3-fluoro-5-[4-(2-pyrazol-1-ylacetyl)piperazin-1-yl]phenyl]prop-1-en-2-yl]-10-hydroxy-3,7-dimethyl-12-oxo-1-oxacyclododec-4-en-6-yl] morpholine-4-carboxylate]
IC50 [1]: 15.9 nM | IC50 [2, 4]: 93.9 nM | IC50 [2, 5]: 6.96 nM | Ratio Ad2.1/2.2 [2]: 13.488 | CTGlo-ATS Mean MinResponse % 72 h NCIH1568.1 [3, 6]: −62.835% | GI50 [3, 7]: 33.1 nM

C/C(=C\c1cc(F)cc(N(C)CC2CCN(S(C)(=O)=O)CC2)c1)[C@H]1OC(=O)C[C@H](O)CC[C@H](C)[C@@H](OC(=O)N2CCN(C)CC2)/C=C/[C@@H]1C [Compound 187]
IC50 [1]: 43.2 nM | IC50 [2, 4]: 157 nM | IC50 [2, 5]: 59.6 nM | GI50 [3, 8]: 65 nM | CTGlo-ATS Mean MinResponse % 72 h NCIH1568.1 [3, 9]: −54.197%

C/C(=C\c1cc(F)cc(N2CCN(C(=O)Cn3cccn3)CC2)c1)[C@H]1OC(=O)C[C@H](O)CC[C@H](C)[C@@H](OC(=O)N2CCN(c3ccncc3)CC2)/C=C/[C@@H]1C [Compound 237, [(2S,3S,4E,6R,7S,10R)-2-[(E)-1-[3-fluoro-5-[4-(2-pyrazol-1-ylacetyl)piperazin-1-yl]phenyl]prop-1-en-2-yl]-10-hydroxy-3,7-dimethyl-12-oxo-1-oxacyclododec-4-en-6-yl] 4-pyridin-4-ylpiperazine-1-carboxylate]
IC50 [1]: 8.37 nM | IC50 [2, 4]: 18.6 nM | IC50 [2, 5]: 9.33 nM | Ratio Ad2.1/2.2 [2]: 1.989 | CTGlo-ATS Mean MinResponse % 72 h NCIH1568.1 [3, 6]: −78.619% | GI50 [3, 10]: 12 nM

C/C(=C\c1cc(F)c2nnn(C3CCN(C(=O)OC(C)(C)C)CC3)c2c1)[C@H]1OC(=O)C[C@H](O)CC[C@H](C)[C@@H](OC(=O)N2CCN(C)CC2)/C=C/[C@@H]1C [Compound 144]
IC50 [1]: 12.9 nM | IC50 [2, 4]: 23 nM | IC50 [2, 5]: 17.8 nM | GI50 [3, 8]: 4.12 nM | CTGlo-ATS Mean MinResponse % 72 h NCIH1568.1 [3, 9]: −95.432%

C/C(=C\c1cc(F)c2nnn(C3CCN(S(C)(=O)=O)CC3)c2c1)[C@H]1OC(=O)C[C@H](O)CC[C@H](C)[C@@H](OC(=O)N2CCN(C)CC2)/C=C/[C@@H]1C [Compound 157]
IC50 [1]: 2.27 nM | IC50 [2, 4]: 8.47 nM | IC50 [2, 5]: 7.49 nM | GI50 [3, 8]: 1.29 nM | CTGlo-ATS Mean MinResponse % 72 h NCIH1568.1 [3, 9]: −90.424%

C/C(=C\c1cc(F)cc(N(C)C2CCN(C(=O)Nc3ccccc3)CC2)c1)[C@H]1OC(=O)C[C@H](O)CC[C@H](C)[C@@H](OC(=O)N2CCN(C)CC2)/C=C/[C@@H]1C [Compound 193]
IC50 [1]: 127 nM | IC50 [2, 4]: 47.8 nM | IC50 [2, 5]: 19.6 nM | GI50 [3, 8]: 17.2 nM | CTGlo-ATS Mean MinResponse % 72 h NCIH1568.1 [3, 9]: −89.438%

C/C(=C\c1cc(F)cc(N2CCN(C(=O)Cn3cccn3)CC2)c1)[C@H]1OC(=O)C[C@H](O)CC[C@H](C)[C@@H](OC(=O)N2CCCN(C)CC2)/C=C/[C@@H]1C [Compound 225, [(2S,3S,4E,6R,7S,10R)-2-[(E)-1-[3-fluoro-5-[4-(2-pyrazol-1-ylacetyl)piperazin-1-yl]phenyl]prop-1-en-2-yl]-10-hydroxy-3,7-dimethyl-12-oxo-1-oxacyclododec-4-en-6-yl] 4-methyl-1,4-diazepane-1-carboxylate]
IC50 [1]: 18.2 nM | IC50 [2, 4]: 7.56 nM | IC50 [2, 5]: 22.4 nM | Ratio Ad2.1/2.2 [2]: 0.337 | CTGlo-ATS Mean MinResponse % 72 h NCIH1568.1 [3, 6]: −73.768% | GI50 [3, 10]: 11 nM

C/C(=C\c1cc(F)cc(N2CCN(C(=O)Cn3cccn3)CC2)c1)[C@H]1OC(=O)C[C@H](O)CC[C@H](C)[C@@H](OC(=O)N(C)CCc2ccc(O)cc2)/C=C/[C@@H]1C [Compound 239, [(2S,3S,4E,6R,7S,10R)-2-[(E)-1-[3-fluoro-5-[4-(2-pyrazol-1-ylacetyl)piperazin-1-yl]phenyl]prop-1-en-2-yl]-10-hydroxy-3,7-dimethyl-12-oxo-1-oxacyclododec-4-en-6-yl] N-[2-(4-hydroxyphenyl)ethyl]-N-methylcarbamate]
IC50 [1]: 150 nM | IC50 [2, 4]: 103 nM | IC50 [2, 5]: 48 nM | Ratio Ad2.1/2.2 [2]: 2.151 | CTGlo-ATS Mean MinResponse % 72 h NCIH1568.1 [3, 6]: −77.758% | GI50 [3, 10]: 63.5 nM

C/C(=C\c1cc(F)c2nnn(Cc3ccc(Cl)cc3)c2c1)[C@H]1OC(=O)C[C@H](O)CC[C@H](C)[C@@H](OC(=O)N2CCN(C)CC2)/C=C/[C@@H]1C [Compound 145]
IC50 [1]: 69.4 nM | IC50 [2, 4]: 688 nM | IC50 [2, 5]: 38.1 nM | GI50 [3, 8]: 25 nM | CTGlo-ATS Mean MinResponse % 72 h NCIH1568.1 [3, 9]: −66.236%

Source: patent publication US11679107B2 (Eisai R&D Management Co., Ltd., priority 2018, dated 2023)
